Values quoted from earlier work in patent US10905730B2, “Phytocannabinoid topical compositions for releiving pain” (priority 2017, dated 2021).
Like-named read-outs stand apart in the source and are kept apart here.

C=C(C)[C@@H]1CCC(C)=C[C@H]1c1c(O)cc(CCCCC)cc1O [CBD, cannabidiol]
solubility in organic solvents: soluble in organic solvents such as pentane
solubility in water: insoluble in water
chemical stability (acidic conditions): cyclizes to THC
chemical stability (strongly basic media and presence of air): oxidized to a quinone
